Reference: US20050144654A1, “Procedure for screening of neuroactive substance and the associated neural plasticity” (COUNCIL OF SCIENTIFIC & INDUSTRIAL RESEARCH, priority 2003, published 2005)
Counter-ions that a name gives are not always drawn. Marks after values point to notes of the source that are not given here.

What follows are molecules tested on Drosophila melanogaster adult males (wild type Oregon-R strain) (assay: Negative geotaxis assay (height climbed, climbing speed)). Settings: 4th day after drug withdrawal (21st day of beginning of treatment), n=30.
Assay type: in vivo
Procedure: (§1) Unless otherwise mentioned, standard methods of fly manipulation were followed. Standard fly medium consisting of agar-agar, maize powder, brown sugar, dried yeast and nipagin was used. Flies were cultured at 22±1° C., 60% RH, and 12 hrs light (9 AM to 9 PM) and 12 hours dark cycle. D. melanogaster wild type Oregon-R strain was used in the experiment. To obtain males for control and drug treatment, flies from identical cultures grown in glass vials were first allowed to lay eggs in milk bottles containing medium. Flies were shifted to fresh bottles every 12 hr. First 4 sets of bottles were discarded. Flies that emerged in subsequent bottles were only used. Those that emerged in the beginning were first discarded and then flies were collected twice at 12 hr interval. Flies collected each time were kept separately in a single bottle. Two days after first collection, males and females from both the bottles were separated. Males were then pooled together and shifted to a new bottle. Flies were used for control or drug treatment two days later.
(§2) Following morning after pooling males for treatment, drugs (Sigma-Aldrich Co, St. Louis, U.S.A.) were first dissolved in distilled water at following concentration: 33.3 mg/ml of strychnine (STR), 40 mg/ml of pentylenetetrazol (PTZ), 20 mg/ml of pilocarpine-hydrochloride (PILO), 20 mg/ml of tetraethylammonium chloride (TEA), 10 mg/ml of lithium chloride (LICA), and 10.5 mg/ml of ethosuximide (ESD). Appropriate volume of freshly made drug solutions were then poured in molten fly media, and mixed thoroughly, to achieve a final concentration of 3.33 mg/ml of STR, 4 mg/ml of PTZ, 2 mg/ml of PILO, 2 mg/ml of TEA, 1 mg/ml of LICA, and 1.05 mg/ml of ESD. For control, i.e., normal food (NF), distilled water of same volume as drug solution was added in the medium and mixed. Following this, the molten media was dispensed in glass vials, stored overnight at 4° C. and then used for above treatment of flies. Thirty male flies were shifted to each of the seven treatment vials, NF, STR, PTZ, PILO, TEA, LICA and ESD. Flies were maintained at 22±1° C., 60% RH, and 12 hrs light (9 AM to 9 PM) and 12 hours dark cycle.
(§3) Negative geotaxis assays for measuring height climbed and climbing speed, and horizontal locomotion assay for measuring distance walked—were performed at room temperature, between 9 AM to 9 PM. They were all performed at a specified area in a room, where same light sources were always used. While measuring various locomotor activities, extreme care was taken to ensure that the room is quiet, and the table onto which assays were performed undisturbed and vibration free. Utmost care was taken to ensure identical handling of flies, in minutest details. For measuring height climbed, climbing speed and distance walked, a single fly was randomly selected at a time. This was achieved by first inverting flies from a given treatment vial into an empty vial and then continuously and gently shaking and inverting both the vials in such a way that a single fly is finally trapped in the empty vial. Once trapped, all the three locomotor activities were measured using the same fly, height climbed, climbing speed and distance walked, in that order. One fly each from NF, STR, PTZ, PILO, TEA, LICA, and ESD, selected randomly, was first scored and then the same exercise was repeated for another two flies. Once a fly was scored for all the three locomotor activities, it was discarded. Flies were particularly checked for intact legs and wings, before they were used in negative geotaxis and horizontal locomotion assays.
(§4) A glass tube of 1.7 cm diameter and […], along with two cotton plugs were used in negative geotaxis and horizontal locomotion assays. The tube was length wise marked with lines at every cm. Three flies from each treatment were assayed. Each fly was assayed 10 times in succession.

SMILES	Height climbed by flies, Mean
CCC1(C)CC(=O)NC1=O (centres unmarked) [ESD, ethosuximide]	32.66*** cm
CC[C@@H]1C(=O)OC[C@@H]1Cc1cncn1C [PILO, pilocarpine-hydrochloride]	19.96 cm
[Cl-].[Li+] [LICA, lithium chloride]	25.33 cm
O=C1C[C@@H]2OCC=C3CN4CC[C@]56c7ccccc7N1[C@H]5[C@H]2[C@H]3C[C@H]46 [STR, strychnine]	26.26 cm
CC[N+](CC)(CC)CC.[Cl-] [TEA, tetraethylammonium chloride]	22.13 cm

Same assay, conditions: 4th day after drug withdrawal, n=30

SMILES	Climbing speed of flies, Mean
CCC1(C)CC(=O)NC1=O (centres unmarked) [ESD, ethosuximide]	1.5*** cm/sec
CC[C@@H]1C(=O)OC[C@@H]1Cc1cncn1C [PILO, pilocarpine-hydrochloride]	1.32** cm/sec
[Cl-].[Li+] [LICA, lithium chloride]	1.22* cm/sec
O=C1C[C@@H]2OCC=C3CN4CC[C@]56c7ccccc7N1[C@H]5[C@H]2[C@H]3C[C@H]46 [STR, strychnine]	1.29** cm/sec
C1CCc2nnnn2CC1 [PTZ, pentylenetetrazol]	1.25** cm/sec
CC[N+](CC)(CC)CC.[Cl-] [TEA, tetraethylammonium chloride]	1.11 cm/s

Same assay, conditions: 4th day after drug withdrawal; result in words

SMILES	height climbed compared to NF
CCC1(C)CC(=O)NC1=O (centres unmarked) [ESD, ethosuximide]	increase

Same assay, conditions: 31st day after drug withdrawal (48th day of beginning of treatment), n=30

SMILES	Height climbed by flies, Mean
CCC1(C)CC(=O)NC1=O (centres unmarked) [ESD, ethosuximide]	19.5*** cm
CC[C@@H]1C(=O)OC[C@@H]1Cc1cncn1C [PILO, pilocarpine-hydrochloride]	16.46 cm
[Cl-].[Li+] [LICA, lithium chloride]	11.4* cm
O=C1C[C@@H]2OCC=C3CN4CC[C@]56c7ccccc7N1[C@H]5[C@H]2[C@H]3C[C@H]46 [STR, strychnine]	15.8 cm
CC[N+](CC)(CC)CC.[Cl-] [TEA, tetraethylammonium chloride]	16.2 cm

Same assay, conditions: 31st day after drug withdrawal, n=30

SMILES	Climbing speed of flies, Mean
CCC1(C)CC(=O)NC1=O (centres unmarked) [ESD, ethosuximide]	1.52*** cm/sec
CC[C@@H]1C(=O)OC[C@@H]1Cc1cncn1C [PILO, pilocarpine-hydrochloride]	1.14** cm/sec
[Cl-].[Li+] [LICA, lithium chloride]	1.3*** cm/sec
O=C1C[C@@H]2OCC=C3CN4CC[C@]56c7ccccc7N1[C@H]5[C@H]2[C@H]3C[C@H]46 [STR, strychnine]	1.04* cm/sec
C1CCc2nnnn2CC1 [PTZ, pentylenetetrazol]	1.37*** cm/sec

Same assay, conditions: 31st day after drug withdrawal; result in words

SMILES	climbing speed than the control (Table 2)
CCC1(C)CC(=O)NC1=O (centres unmarked) [ESD, ethosuximide]	greater
[Cl-].[Li+] [LICA, lithium chloride]	lower
C1CCc2nnnn2CC1 [PTZ, pentylenetetrazol]	lower

Same assay, conditions: 168 h

SMILES	Climbing speed, Mean	Height climbed, Mean
C1CCc2nnnn2CC1 [PTZ, pentylenetetrazol]	1.63*** cm/sec	29.13*** cm

Same assay, conditions: day 7 of the beginning of treatment, drug in fly medium

SMILES	Climbing speed, Mean	Height climbed, Mean
CCC1(C)CC(=O)NC1=O (centres unmarked) [ESD, ethosuximide]	0.98 cm/s	25.66* cm
CC[C@@H]1C(=O)OC[C@@H]1Cc1cncn1C [PILO, pilocarpine-hydrochloride]	1.52*** cm/sec	34.66*** cm
[Cl-].[Li+] [LICA, lithium chloride]	1.9*** cm/sec	35.8*** cm
O=C1C[C@@H]2OCC=C3CN4CC[C@]56c7ccccc7N1[C@H]5[C@H]2[C@H]3C[C@H]46 [STR, strychnine]	1.53*** cm/sec	33.36*** cm
CC[N+](CC)(CC)CC.[Cl-] [TEA, tetraethylammonium chloride]	1.67*** cm/sec	32*** cm

Same assay, conditions: day 7 of the beginning of treatment; result in words

SMILES	height climbed compared to NF, the control
CCC1(C)CC(=O)NC1=O (centres unmarked) [ESD, ethosuximide]	increase
CC[C@@H]1C(=O)OC[C@@H]1Cc1cncn1C [PILO, pilocarpine-hydrochloride]	increase
[Cl-].[Li+] [LICA, lithium chloride]	increase
C1CCc2nnnn2CC1 [PTZ, pentylenetetrazol]	increase
CC[N+](CC)(CC)CC.[Cl-] [TEA, tetraethylammonium chloride]	increase

Each molecule was assayed on Drosophila melanogaster adult males (wild type Oregon-R strain) (assay: Horizontal locomotion assay (distance walked)). Settings: 4th day after drug withdrawal, n=30.
Assay type: in vivo
Procedure: as §1, §2, §3, §4

SMILES	Distance walked by flies, Mean
CCC1(C)CC(=O)NC1=O (centres unmarked) [ESD, ethosuximide]	40.16*** cm marks crossed per minute
CC[C@@H]1C(=O)OC[C@@H]1Cc1cncn1C [PILO, pilocarpine-hydrochloride]	33.83** cm marks crossed per minute
[Cl-].[Li+] [LICA, lithium chloride]	33*** cm marks crossed per minute
O=C1C[C@@H]2OCC=C3CN4CC[C@]56c7ccccc7N1[C@H]5[C@H]2[C@H]3C[C@H]46 [STR, strychnine]	43.66 cm marks crossed per minute
C1CCc2nnnn2CC1 [PTZ, pentylenetetrazol]	28.03*** cm marks crossed per minute
CC[N+](CC)(CC)CC.[Cl-] [TEA, tetraethylammonium chloride]	26.76*** cm marks crossed per minute

Same assay, conditions: 31st day after drug withdrawal, n=30

SMILES	Distance walked by flies, Mean
CCC1(C)CC(=O)NC1=O (centres unmarked) [ESD, ethosuximide]	30.63 cm marks crossed per minute
CC[C@@H]1C(=O)OC[C@@H]1Cc1cncn1C [PILO, pilocarpine-hydrochloride]	21.16 cm marks crossed per minute
[Cl-].[Li+] [LICA, lithium chloride]	6.93*** cm marks crossed per minute
O=C1C[C@@H]2OCC=C3CN4CC[C@]56c7ccccc7N1[C@H]5[C@H]2[C@H]3C[C@H]46 [STR, strychnine]	27.66 cm marks crossed per minute
C1CCc2nnnn2CC1 [PTZ, pentylenetetrazol]	12.5* cm marks crossed per minute
CC[N+](CC)(CC)CC.[Cl-] [TEA, tetraethylammonium chloride]	27.16 cm marks crossed per minute

Same assay, conditions: 168 h

SMILES	Distance walked, Mean
C1CCc2nnnn2CC1 [PTZ, pentylenetetrazol]	42.5** cm marks crossed per minute

Same assay, conditions: 31 day of drug withdrawal; result in words

SMILES	distance walked than the control
[Cl-].[Li+] [LICA, lithium chloride]	lesser
C1CCc2nnnn2CC1 [PTZ, pentylenetetrazol]	lesser

Same assay, conditions: day 7 of the beginning of treatment, drug in fly medium

SMILES	Distance walked, Mean
CCC1(C)CC(=O)NC1=O (centres unmarked) [ESD, ethosuximide]	37.1 cm marks crossed per minute
CC[C@@H]1C(=O)OC[C@@H]1Cc1cncn1C [PILO, pilocarpine-hydrochloride]	48.53*** cm marks crossed per minute
[Cl-].[Li+] [LICA, lithium chloride]	34.23 cm marks crossed per minute
O=C1C[C@@H]2OCC=C3CN4CC[C@]56c7ccccc7N1[C@H]5[C@H]2[C@H]3C[C@H]46 [STR, strychnine]	39.33* cm marks crossed per minute
CC[N+](CC)(CC)CC.[Cl-] [TEA, tetraethylammonium chloride]	45.1*** cm marks crossed per minute
